Assays:
[1] = test system: mice grafted with cancer cells; test: In-vivo mice study, tumor volume vs time
Source text: FIG. 6 provides a graph of change in Mice tumor volume vs time involving different treatments. The black curve corresponds to a control untreated tumor, the gray curve corresponds to intratumoreal injection with placebo particles containing no drug, the green curve corresponds to intravenous injection with drug, the red curve corresponds to intratumoreal injection of free drug, and the blue curve corresponds to injection with drug-encapsulated hydrogel PRV311.
Here, the PRV311 composition included microparticles loaded with the anti-tumor cytokine IL-12. […] It is hypothesized that the injected PRV311's polymeric mesh causes microparticles containing PRV311 to be retained locally, increasing efficacy.

[2] = test system: established colorectal (MC32a) and pancreatic (Panc02) tumors; settings: weekly i.t. injections; cited from earlier work
[3] = mouse, in vivo; cited from earlier work

For IL-12: potent antitumor cytokine, the tumor growth ([1]; intratumoral injection) is listed as “merely delayed tumor growth”, the tumor growth ([1]; intravenous injection) is listed as “no significant change in tumor growth rate” and the established tumors eradicated [2] is listed as at most 10%. For the same substance, the “local IL-12 retention” value [3] was 1 to 2 days.

Reference: patent US20230103552A1, “SYSTEMS AND PHARMACEUTICAL COMPOSITIONS FOR TREATMENT BY DIRECT INJECTION OF A TARGETED POPULATION OF CELLS” (Privo Technologies, Inc., priority 2020, published 2023)
